Assay [1] addresses 72 kDa type IV collagenase (Homo sapiens, UniProt P08253).
The next assay addresses Collagenase 3 (Homo sapiens, UniProt P45452).
The target of another assay is T1, Interstitial collagenase (Homo sapiens, UniProt P03956).
T1 sequence (P03956 whole entry): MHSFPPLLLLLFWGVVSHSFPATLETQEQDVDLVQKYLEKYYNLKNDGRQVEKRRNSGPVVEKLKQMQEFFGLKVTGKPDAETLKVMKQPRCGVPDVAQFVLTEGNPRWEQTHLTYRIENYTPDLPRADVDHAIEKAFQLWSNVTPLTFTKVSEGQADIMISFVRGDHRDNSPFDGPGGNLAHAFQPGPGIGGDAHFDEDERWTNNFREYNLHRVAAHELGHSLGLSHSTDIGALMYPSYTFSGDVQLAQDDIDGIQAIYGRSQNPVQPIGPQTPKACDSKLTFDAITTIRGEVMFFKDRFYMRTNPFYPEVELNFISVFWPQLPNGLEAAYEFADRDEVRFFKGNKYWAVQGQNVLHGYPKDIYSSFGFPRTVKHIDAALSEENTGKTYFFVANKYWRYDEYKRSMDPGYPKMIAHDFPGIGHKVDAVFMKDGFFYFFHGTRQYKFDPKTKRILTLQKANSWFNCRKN
Put plainly: 50 percent inhibition of human Matrix metalloprotease-1 by the cleavage of fluorogenic peptide MCA-Pro-Leu-Gly-Leu-Dpa-ala-Arg-NH2.

Sequence of 72 kDa type IV collagenase (P08253 whole entry): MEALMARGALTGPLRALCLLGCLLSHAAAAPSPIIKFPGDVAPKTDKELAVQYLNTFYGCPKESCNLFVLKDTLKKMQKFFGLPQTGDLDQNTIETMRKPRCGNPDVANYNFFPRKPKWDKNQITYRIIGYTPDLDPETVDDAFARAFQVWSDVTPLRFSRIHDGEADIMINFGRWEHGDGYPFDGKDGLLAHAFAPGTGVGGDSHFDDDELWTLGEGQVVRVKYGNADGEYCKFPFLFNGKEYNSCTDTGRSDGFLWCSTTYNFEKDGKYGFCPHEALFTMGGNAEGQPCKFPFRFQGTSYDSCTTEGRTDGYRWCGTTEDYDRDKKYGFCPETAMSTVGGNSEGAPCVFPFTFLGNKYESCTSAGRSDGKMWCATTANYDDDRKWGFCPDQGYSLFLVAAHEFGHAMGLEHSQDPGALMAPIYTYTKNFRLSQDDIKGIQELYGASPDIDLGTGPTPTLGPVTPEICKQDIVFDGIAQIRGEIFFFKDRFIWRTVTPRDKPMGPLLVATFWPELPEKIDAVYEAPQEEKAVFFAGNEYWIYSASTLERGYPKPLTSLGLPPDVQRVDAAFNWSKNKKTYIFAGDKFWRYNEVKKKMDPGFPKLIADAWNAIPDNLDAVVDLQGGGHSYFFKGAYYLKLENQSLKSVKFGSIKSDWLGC

As a reminder, the IC50 is the midpoint of a concentration-inhibition curve. Read a high IC50 as weaker potency in that assay. For the compound `O=C(NO)c1ccccc1S(=O)(=O)N1CCC(c2ccccc2)CC1`, the IC50 in assay [1] was 70 nM; on Collagenase 3 it was 520 nM.

As for `O=C(NO)c1c(F)cccc1S(=O)(=O)N1CCC(Oc2ccc(C(F)(F)F)cc2)CC1`, in assay [1], the IC50 is 3.3 nM.

In the case of `O=C(NO)C1(CS(=O)(=O)c2ccc(Oc3ccc(Cl)cc3)cc2)CCOCC1` [CTS-1027], 800 nM corresponded to half-maximal inhibition against Interstitial collagenase (IC50).

The compound `COc1ccc(C(=O)NC2CCN(S(=O)(=O)c3ccccc3C(=O)NO)C2)cc1` (single isomer, unassigned; (-)) came in with a half-maximal inhibitory concentration (IC50) on Interstitial collagenase above 10000 nM.

In the case of `O=C(NO)c1ccccc1S(=O)(=O)N1CCC(Oc2ccc(C(F)(F)F)cc2)CC1`, the concentration for half-maximal inhibition (IC50) against Collagenase 3 worked out at 28 nM.

`O=C(NO)c1ccccc1S(=O)(=O)N1CCC(Oc2ccc(OC(F)(F)F)cc2)CC1` gave a half-maximal inhibitory concentration (IC50) in assay [1] of 2 nM.

At Interstitial collagenase, `O=C(NO)c1ccccc1S(=O)(=O)N1CCC(Oc2ccc(C(F)(F)F)cc2)C1` (stereo not drawn) registered an IC50 above 10000 nM.

For the origin of these results see ChEMBL document CHEMBL1133364, “Synthesis and activity of selective MMP inhibitors with an aryl backbone” (Bioorg Med Chem Lett, 2000).
